Assay results reported in paper PMC9843824 (Neuropharmacology, 2022).
“And” between values parts separate entries of the source, which are not always exact repeats. Equal values may be shown once. Read-outs that look alike come from different tables or passages of the source. Blank lines part the entries; values can stand above or below the molecule they belong to.

Experiments:
in vitro = in vitro ADME; conditions: rat, plasma
[1] = assay type: in vivo; conditions: rat; for Oral availability / bioavailability: gavage vs i.p.
KA rat model of TLE = conditions: for Neuroprotection, FJB staining in hippocampus at 3 d: 10 mg/kg i.p. 1 h and 4 h after SE
physchem = assay type: physicochemical
[2] = tested on: neural activity regulated, high affinity MeAIB/Gln transport in mature rat hippocampal neurons; assay type: cell-based; conditions: for Block of activity regulated MeAIB transport, screen 2 / Result of screen 2 (block of MeAIB transport): compound 10 μM, 14C-MeAIB 5.4 μM; for IC50: read-out: IC50, inhibition of Ca2+-regulated (spontaneous, activity regulated) MeAIB transport, hippocampal neurons DIV 19–21, 2 min preincubation, 37 °C; for Mode of inhibition of Ca2+-regulated MeAIB transport: Michaelis-Menten kinetic analysis; for Reduction of initial velocity (V, Vmax) of MeAIB transport / Vmax of Ca2+-regulated MeAIB transport in presence of inhibitor: inhibitor 1 μM; for Vmax of Ca2+-regulated MeAIB transport in presence of inhibitor: control 107 ± 9
[3] = tested on: Ca2+-independent (low affinity) MeAIB transport in mature rat hippocampal neurons; assay type: cell-based; conditions: at 15 min of uptake
NaV1.6 = NaV1.6 (Homo sapiens, UniProt Q9UQD0); assay: Whole-cell patch-clamp, HEK cells transiently transfected with NaV1.6; assay type: cell-based; conditions: IC50 NaV1.6, holding potential −80 mV, inter-pulse interval 10 s (0.1 Hz)
[4] = tested on: Ca2+-activated K+ channels; conditions: ref Sankaranarayanan et al., 2009; cited from earlier work
NaV1.2 = NaV1.2 (Mus musculus, UniProt B1AWN6); assay type: cell-based
[5] = 30 mg/kg i.p. 1 h and 4 h after SE, then once/day for 2 d

Sequence of NaV1.6 (Q9UQD0 whole entry): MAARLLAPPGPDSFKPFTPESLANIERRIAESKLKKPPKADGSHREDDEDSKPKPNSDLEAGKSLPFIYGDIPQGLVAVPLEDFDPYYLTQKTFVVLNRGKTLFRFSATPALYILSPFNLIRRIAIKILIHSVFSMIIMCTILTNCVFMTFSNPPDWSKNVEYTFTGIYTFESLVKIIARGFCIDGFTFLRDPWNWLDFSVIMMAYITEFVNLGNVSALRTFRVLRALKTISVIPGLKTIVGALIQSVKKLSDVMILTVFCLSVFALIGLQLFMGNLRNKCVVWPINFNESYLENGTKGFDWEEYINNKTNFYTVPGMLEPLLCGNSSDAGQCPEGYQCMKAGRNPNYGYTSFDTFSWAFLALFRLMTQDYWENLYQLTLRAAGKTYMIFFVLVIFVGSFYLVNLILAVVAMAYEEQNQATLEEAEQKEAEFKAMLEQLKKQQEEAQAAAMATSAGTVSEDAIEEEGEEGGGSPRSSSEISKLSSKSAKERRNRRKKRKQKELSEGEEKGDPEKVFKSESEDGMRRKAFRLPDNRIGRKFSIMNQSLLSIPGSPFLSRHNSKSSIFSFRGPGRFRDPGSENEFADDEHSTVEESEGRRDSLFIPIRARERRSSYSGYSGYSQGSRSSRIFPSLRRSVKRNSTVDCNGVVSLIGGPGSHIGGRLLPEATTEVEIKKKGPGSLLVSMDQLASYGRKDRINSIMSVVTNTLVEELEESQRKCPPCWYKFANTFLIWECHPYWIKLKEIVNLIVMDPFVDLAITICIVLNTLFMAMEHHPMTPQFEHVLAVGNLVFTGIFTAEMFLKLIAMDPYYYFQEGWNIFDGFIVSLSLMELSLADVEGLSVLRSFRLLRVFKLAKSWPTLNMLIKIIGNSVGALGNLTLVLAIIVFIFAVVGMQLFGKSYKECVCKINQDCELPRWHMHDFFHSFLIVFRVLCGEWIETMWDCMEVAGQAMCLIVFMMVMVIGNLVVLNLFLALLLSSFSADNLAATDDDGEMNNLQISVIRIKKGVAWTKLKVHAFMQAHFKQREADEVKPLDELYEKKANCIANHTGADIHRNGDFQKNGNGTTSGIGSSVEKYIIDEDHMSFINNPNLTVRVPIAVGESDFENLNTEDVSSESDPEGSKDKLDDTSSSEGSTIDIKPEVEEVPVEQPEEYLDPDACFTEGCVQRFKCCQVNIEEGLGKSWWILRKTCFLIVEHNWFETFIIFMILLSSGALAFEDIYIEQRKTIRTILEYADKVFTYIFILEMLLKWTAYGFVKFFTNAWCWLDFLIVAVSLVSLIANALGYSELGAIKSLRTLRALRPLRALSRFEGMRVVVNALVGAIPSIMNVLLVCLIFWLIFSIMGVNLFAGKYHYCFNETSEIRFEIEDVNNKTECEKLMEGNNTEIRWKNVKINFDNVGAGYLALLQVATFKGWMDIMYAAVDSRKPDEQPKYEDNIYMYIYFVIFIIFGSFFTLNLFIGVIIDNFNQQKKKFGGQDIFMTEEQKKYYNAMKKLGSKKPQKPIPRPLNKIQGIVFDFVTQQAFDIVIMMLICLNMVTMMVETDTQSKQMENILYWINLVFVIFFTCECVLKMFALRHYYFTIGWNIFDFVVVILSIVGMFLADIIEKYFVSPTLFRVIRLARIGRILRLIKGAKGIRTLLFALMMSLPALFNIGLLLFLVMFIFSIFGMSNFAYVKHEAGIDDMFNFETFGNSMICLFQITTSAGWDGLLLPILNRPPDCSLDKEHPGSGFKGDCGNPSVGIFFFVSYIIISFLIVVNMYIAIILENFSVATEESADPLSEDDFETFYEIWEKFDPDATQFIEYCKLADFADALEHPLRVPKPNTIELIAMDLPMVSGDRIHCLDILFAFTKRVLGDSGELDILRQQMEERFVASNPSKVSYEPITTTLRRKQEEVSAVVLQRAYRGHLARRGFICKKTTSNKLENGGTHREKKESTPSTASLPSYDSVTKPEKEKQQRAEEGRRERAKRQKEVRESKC
Sequence of NaV1.2 (B1AWN6 whole entry): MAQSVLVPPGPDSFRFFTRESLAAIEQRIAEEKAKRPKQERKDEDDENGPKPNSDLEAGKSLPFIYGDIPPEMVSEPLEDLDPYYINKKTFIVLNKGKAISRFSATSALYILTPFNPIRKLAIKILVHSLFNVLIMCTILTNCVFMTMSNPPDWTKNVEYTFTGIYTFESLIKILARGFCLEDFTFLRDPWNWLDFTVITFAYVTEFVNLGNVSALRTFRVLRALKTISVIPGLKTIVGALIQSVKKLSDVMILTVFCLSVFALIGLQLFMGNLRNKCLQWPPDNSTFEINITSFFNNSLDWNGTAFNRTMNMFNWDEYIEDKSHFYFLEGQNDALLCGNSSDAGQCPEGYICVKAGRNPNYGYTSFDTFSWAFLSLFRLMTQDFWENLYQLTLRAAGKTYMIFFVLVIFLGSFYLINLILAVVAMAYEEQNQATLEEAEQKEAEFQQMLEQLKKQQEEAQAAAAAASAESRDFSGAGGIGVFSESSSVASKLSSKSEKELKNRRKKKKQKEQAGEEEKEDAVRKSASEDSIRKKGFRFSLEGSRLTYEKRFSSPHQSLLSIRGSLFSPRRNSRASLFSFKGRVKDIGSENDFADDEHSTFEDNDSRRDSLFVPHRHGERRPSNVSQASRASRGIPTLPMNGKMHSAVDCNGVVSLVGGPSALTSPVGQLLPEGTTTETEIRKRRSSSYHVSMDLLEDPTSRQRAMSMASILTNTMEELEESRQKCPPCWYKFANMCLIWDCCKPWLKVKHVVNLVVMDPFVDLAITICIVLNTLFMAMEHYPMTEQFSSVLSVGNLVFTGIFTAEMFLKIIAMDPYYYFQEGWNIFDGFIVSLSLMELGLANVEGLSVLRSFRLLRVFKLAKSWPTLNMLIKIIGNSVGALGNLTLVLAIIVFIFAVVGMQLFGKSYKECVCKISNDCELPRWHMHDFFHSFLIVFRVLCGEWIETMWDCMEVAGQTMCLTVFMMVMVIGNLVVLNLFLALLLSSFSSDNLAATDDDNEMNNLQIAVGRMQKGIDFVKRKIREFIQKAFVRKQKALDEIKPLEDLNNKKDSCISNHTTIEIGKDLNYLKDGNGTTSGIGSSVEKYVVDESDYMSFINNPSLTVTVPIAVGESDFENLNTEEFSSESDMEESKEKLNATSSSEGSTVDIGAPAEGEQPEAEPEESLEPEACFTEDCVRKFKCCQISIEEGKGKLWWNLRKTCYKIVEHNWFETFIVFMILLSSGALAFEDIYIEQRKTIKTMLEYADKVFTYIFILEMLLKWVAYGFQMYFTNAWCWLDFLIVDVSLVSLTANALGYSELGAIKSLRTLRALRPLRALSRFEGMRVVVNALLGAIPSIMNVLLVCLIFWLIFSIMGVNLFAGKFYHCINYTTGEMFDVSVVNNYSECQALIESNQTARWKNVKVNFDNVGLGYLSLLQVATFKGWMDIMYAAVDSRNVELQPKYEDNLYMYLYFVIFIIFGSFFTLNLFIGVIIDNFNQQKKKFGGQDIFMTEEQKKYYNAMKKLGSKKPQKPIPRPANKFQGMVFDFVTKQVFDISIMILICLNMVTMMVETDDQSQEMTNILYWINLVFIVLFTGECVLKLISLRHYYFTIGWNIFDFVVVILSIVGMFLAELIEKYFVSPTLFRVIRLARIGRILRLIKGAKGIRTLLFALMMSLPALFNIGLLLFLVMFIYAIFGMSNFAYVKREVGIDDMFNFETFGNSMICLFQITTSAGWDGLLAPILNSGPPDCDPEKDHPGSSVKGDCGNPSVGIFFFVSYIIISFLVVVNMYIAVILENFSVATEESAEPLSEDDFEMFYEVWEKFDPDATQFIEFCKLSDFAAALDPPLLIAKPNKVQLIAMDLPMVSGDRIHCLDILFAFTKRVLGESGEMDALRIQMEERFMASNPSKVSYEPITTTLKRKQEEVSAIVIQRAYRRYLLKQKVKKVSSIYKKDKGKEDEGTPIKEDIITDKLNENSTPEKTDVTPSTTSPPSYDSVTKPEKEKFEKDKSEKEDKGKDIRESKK

fraction unbound (in vitro): 0.01
Oral availability / bioavailability [1]: excellent oral availability
logP (physchem): 4.91
Structure (SMILES): Cc1ccc(-c2nc(N)sc2Cl)c2ccccc12 [SKA-377, 5-Chloro-4-(4-methylnaphthalen-1-yl)thiazol-2-amine]
Neuroprotection, FJB staining in hippocampus at 3 d (KA rat model of TLE; then once/day for 2 d): neuro-protective, but not as protective as riluzole
Hippocampal neural injury by FJB staining and NeuN fluorescence at 3 d (KA rat model of TLE; [5]): neuroprotective

fraction unbound (in vitro): 0.005
logP (physchem): 4.76
Structure (SMILES): Nc1nc(-c2cccc3ccccc23)c(Br)s1 [SKA-219, 5-Bromo-4-(naphthalen-1-yl)thiazol-2-amine]
Block of activity regulated MeAIB transport, screen 2 [2]: > 95%

logP (physchem): 4.05
IC50 ([2]; 15 min uptake): 4.5 ± 0.45 µM
Structure (SMILES): Nc1nc(-c2cccc3ccccc23)cs1 [SKA-75, 4-(Naphthalen-1-yl)thiazol-2-amine]
Block of activity regulated MeAIB transport, screen 2 [2]: ~ 50%

logP (physchem): 4.05
IC50 ([2]; 15 min uptake): 6.2 ± 0.9 µM
Structure (SMILES): Nc1nc(-c2ccc3ccccc3c2)cs1 [SKA-76, 4-(Naphthalen-2-yl)thiazol-2-amine]
Block of activity regulated MeAIB transport, screen 2 [2]: ~ 50%

logP (physchem): 4.14
Structure (SMILES): Nc1nc(-c2ccc3ccccc3c2)c(F)s1 [SKA-382, 5-Fluoro-4-(naphthalen-2-yl)thiazol-2-amine]

Km ([2]; read-out: Km for spontaneous Ca2+-dependent MeAIB transport, Michaelis-Menten analysis, 15 min uptake): 61 ± 5 µM
Structure (SMILES): CNC(C)(C)C(=O)O [MeAIB, methylaminoisobutryic acid, reference compound]
Vmax of Ca2+-independent MeAIB transport [3]: 1793 ± 131 pmol/well
Vmax of Ca2+-dependent MeAIB transport ([2]; at 15 min of uptake): 1605 ± 139 pmol/well

fraction unbound (in vitro): 0.015
logP (physchem): 4.53
IC50 ([2]; 15 min uptake): 4.3 ± 0.4 µM
Structure (SMILES): Nc1nc(-c2ccc(OC(F)(F)F)cc2)c(Cl)s1 [SKA-376, 5-Chloro-4-(4-(trifluoromethoxy)phenyl)thiazol-2-amine]
Hippocampal neural injury by FJB staining and NeuN fluorescence at 3 d (KA rat model of TLE; [5]): did not significantly reduce neural injury

logP (physchem): 4.42
IC50 ([2]; 15 min uptake): 6.5 ± 0.25 µM
Structure (SMILES): Nc1nc(-c2ccc3ccccc3c2)c(Cl)s1 [SKA-379, 5-Chloro-4-(naphthalen-2-yl)thiazol-2-amine]
Neuroprotection, FJB staining in hippocampus at 3 d (KA rat model of TLE; then once/day for 2 d): neuro-protective, but not as protective as riluzole
Hippocampal neural injury by FJB staining and NeuN fluorescence at 3 d (KA rat model of TLE; [5]): neuroprotective

fraction unbound (in vitro): 0.008
Brain penetration [1]: excellent
logP (physchem): 4.2
IC50 (NaV1.6): 28 µM and ~28 µM
IC50 ([2]; 15 min uptake): 1.1 ± 0.17 µM
Structure (SMILES): Nc1nc(-c2cccc3ccccc23)c(Cl)s1 [SKA-378, 5-Chloro-4-(naphthalen-1-yl)thiazol-2-amine]
Neuroprotection, FJB staining in hippocampus at 3 d (KA rat model of TLE; then once/day for 2 d): neuro-protective, but not as protective as riluzole
FJB staining in hippocampal CA1-4 neurons at 3 d (KA rat model of TLE; [5]): minimal
NeuN fluorescence in pyramidal neuron subfields at 3 d (KA rat model of TLE; [5]): largely prevents the diminished NeuN fluorescence
Rats still exhibiting maximal stage 5 seizures (Racine scale) (KA rat model of TLE; 30 mg/kg i.p. given before KA (pretreatment)): > 50%
FJB staining, hippocampal CA pyramidal neuron layers at 3 d (KA rat model of TLE; 30 mg/kg i.p. pretreatment): blocks neuronal hippocampal injury
NeuN fluorescent intensity in CA4, CA3, CA1 at 3 d (KA rat model of TLE; 30 mg/kg i.p. pretreatment): nearly identical to sham levels
Seizure severity vs non-treated KA-injected rats (KA rat model of TLE; 30 mg/kg i.p. pretreatment): did not show a significant reduction in seizure severity
Duration of KA-induced SE events (KA rat model of TLE; 30 mg/kg post-SE): not affected
Mode of inhibition of Ca2+-regulated MeAIB transport [2]: noncompetitive
Reduction of initial velocity (V, Vmax) of MeAIB transport [2]: ~ 50%
Vmax of Ca2+-regulated MeAIB transport in presence of inhibitor [2]: 73 ± 6 pmol/min

logP (physchem): 4.42
Structure (SMILES): Nc1nc(-c2ccc3ccccc3c2)c(Br)s1 [SKA-220, 5-Bromo-4-(naphthalen-2-yl)thiazol-2-amine]
Result of screen 2 (block of MeAIB transport) [2]: active

logP (physchem): 4.53
Structure (SMILES): Cc1ccc(-c2csc(N)n2)c2ccccc12 [SKA-190, 4-(4-Methylnaphthalen-1-yl)thiazol-2-amine]
Result of screen 2 (block of MeAIB transport) [2]: active

logP (physchem): 5.25
Structure (SMILES): Cc1ccc(-c2nc(N)sc2Br)c2ccccc12 [SKA-375, 5-Bromo-4-(4-methylnaphthalen-1-yl)thiazol-2-amine]

fraction unbound (in vitro): 0.043
Brain penetration [1]: excellent
Oral availability / bioavailability [1]: excellent
logP (physchem): 4.58
Structure (SMILES): Nc1nc(-c2ccc(OC(F)(F)F)cc2)cs1 [SKA-41, 4-(4-(Trifluoromethoxy)phenyl)thiazol-2-amine]
Neuroprotection, FJB staining in hippocampus at 3 d (KA rat model of TLE; then once/day for 2 d): neuro-protective, but not as protective as riluzole
Activity on Ca2+-activated K+ channels [4]: inactive

Behaviour of rats at higher doses (KA rat model of TLE; e.g., 30 mg/kg): render rats immobile and unresponsive
Frequency dependence of NaV1.2 block (NaV1.2): not frequency dependent
IC50 (NaV1.6): 115 ± 2 µM
IC50 ([2]; 15 min uptake): 0.86 ± 0.02 µM
Structure (SMILES): Nc1nc2ccc(OC(F)(F)F)cc2s1 [Riluzole, reference compound]
Neuroprotection, FJB staining in hippocampus at 3 d (KA rat model of TLE; then once/day for 2 d): prevents acute neural injury altogether
Behaviour of rats after treatment (KA rat model of TLE; 10 mg/kg post-SE): relatively immobile/sedated
Duration of KA-induced SE events (KA rat model of TLE; 10 mg/kg post-SE, untreated 4–6 h): less than 2 h
Neural injury in hippocampal limbic areas (KA rat model of TLE; post-treated): largely prevented neural injury
Mode of inhibition of Ca2+-regulated MeAIB transport [2]: noncompetitive
Reduction of initial velocity (V, Vmax) of MeAIB transport [2]: ~ 50%
Vmax of Ca2+-regulated MeAIB transport in presence of inhibitor [2]: 54 ± 1 pmol/min
Spontaneous MeAIB transport after 15 min in presence of inhibitor ([2]; riluzole 10 μM, 23.4 μM 14C-MeAIB, total without inhibitor 619±21): 133 ± 8 pmol/well

Structure (SMILES): COc1ccc(CCN(C)CCCC(C#N)(c2ccc(OC)c(OC)c2)C(C)C)cc1OC (stereo not drawn) [verapamil, reference compound]
Spontaneous MeAIB transport after 15 min in presence of inhibitor [2]: 119 ± 9 pmol/well
